Data as given in US20150126467A1, “USE OF ALGINATE OLIGOMERS TO ENHANCE THE EFFECTS OF ANTIFUNGAL AGENTS” (AlgiIPharma AS, priority 2011, published 2015).
Converted amounts (≈) assume the structure as drawn. Like-named read-outs stand apart in the source and are kept apart here.

Columns and labels:
[1] = tested on: Cryptococcus neoformans CCUG 23451; assay: Robotic MIC assay, Cryptococcus neoformans (Example 6); type: cell-based; conditions: for MIC: Cryptococcus neoformans, read-out: Minimum Inhibitory Concentration (MIC); for effect on MIC when OligoG is added to the medium: media: RPMI with 2% glucose
Experimental: Cryptococcus sp. was grown at 30° C. for 96 h on YM-agar. Spores and aerial mycelium was cut out from the agar, suspended in 1 ml YM-broth and dispersed with glass beads (1 mm) in a mini bead beater for 2 min. The suspension was added glycerol to 10% and frozen at −80° C. Each batch of frozen stock culture was then characterized in separate growth experiments using Mueller-Hinton and RPMI to determine the minimum amount of inoculum giving satisfactory growth after 48 h under the conditions relevant for the MIC assay. This inoculum procedure is used in order to reduce day to day variation in bioassays.
Robotic minimum inhibitory concentration (MIC) assay was performed as follows. OligoG CF-5/20 was dissolved in medium (Mueller-Hinton, RPMI with 2% glucose, Sabouraud or YM) to 1.25 times of the desired assay concentrations (2, 6 and 10%). […].
Two-fold serial dilutions of antifungal agents were made in medium with different concentrations of OligoG CF-5/20, and the solutions were placed in four parallel wells in Nunc 384-well micro plates (30 μl per well in Nunc 242757 microplates). A group of 8 wells with no addition of antifungal agents for each OligoG CF-5/20 concentration was included on each micro plate as growth reference. Each well in the 384-well assay plates was added 7.5 μl of the medium innoculated with frozen stock culture of the relevant strains.
The microplates were placed in plastic bags and incubated without shaking at 34° C. The optical density at 600 nm in the microwells was measured after certain time points from 24 h to 96 h of incubation. […]

[2] = tested on: C. parapsillosis ATCC 22019T; assay: Robotic MIC assay, Candida strains (Example 2); type: cell-based, Candida parapsilosis; conditions: Lodderomyces parapsilosis, ATCC22019, 48 h, Mueller-Hinton broth, read-out: Minimum Inhibitory Concentration (MIC)
Experimental: (§1) A robotic MIC Assay was performed as follows. OligoG CF-5/20 were dissolved in medium (Mueller-Hinton broth or M19 broth depending on experiment) to 1.25 times of the desired assay concentrations (2, 6 and 10%). The antifungal agents under test were dissolved in medium without OligoG CF-5/20 and in medium with OligoG CF-5/20 at a concentration of 1.25 times the highest desired assay concentrations. For experiments where the effect of adding different concentrations of Na^+ was investigated, NaCl was dissolved in medium to the desired concentrations (10, 30 and 50 mM).
(§2) Two-fold serial dilutions of antifungal agents were made in medium with different concentrations of OligoG CF-5/20, and the solutions were placed in four parallel wells in Nunc 384-well micro plates (30 μl per well in Nunc 242757 microplates). A group of 8 wells with no addition of antifungal agents for each OligoG CF-5/20 concentration was included on each microplate as growth reference. To each well in the 384-well assay plates was added 7.5 μl of medium inoculated with a frozen stock culture of Candida albicans (strain CCUG 39343).
(§3) The micro plates were placed in plastic bags and incubated without shaking at 34° C. The optical density at 600 nm in the microwells was measured after approximately 13, 18, 24 and 34 hours of incubation, and the relative growth yield in each well was calculated based on the growth in the reference groups.
(§4) The robotic assay described in Example 1 was employed in this Example. Strains were grown in Mueller-Hinton broth (LAB114 from Lab M Limited) and MIC values (μg ml-1) were determined for each antifungal after incubation for 48 h in the presence of 0, 2, 6 and 10% OligoG CF-5/20 G-fragments. […] OligoG CF-5/20 G-fragments were provided by AlgiPharma AS, Norway.
(§5) Candida strains used were as follows: • C. albicans CCUG 39343 (strain from culture collection) • C. parapsillosis ATCC 22019T (strain from culture collection) • C. krusei 141/03 (candidosis) • C. krusei 249/03(2) (ulceration) • C. lusitaniae 994/01(2) (candidosis) • C. tropicalis 12 (vaginal) • C. tropicalis 75 (vaginal) • C. tropicalis 519468 (urinary) • C. tropicalis 544123 (urinary) • C. tropicalis 250/03 (candidosis) • C. tropicalis AG1 (oral) • C. tropicalis T2.2 (oral)

C. tropicalis AG1 (oral) = assay: Robotic MIC assay, Candida strains (Example 2); type: cell-based; conditions: Candida tropicalis, 48 h, Mueller-Hinton broth, read-out: Minimum Inhibitory Concentration (MIC)
Experimental: as §1, §2, §3, §4, §5

[3] = tested on: C. tropicalis 250/03 (candidosis); assay: Robotic MIC assay, Candida strains (Example 2); type: cell-based; conditions: Candida tropicalis, 48 h, C. tropicalis 250/03 Candiosis, Mueller-Hinton broth, read-out: Minimum Inhibitory Concentration (MIC)
Experimental: as §1, §2, §3, §4, §5

[4] = tested on: C. krusei 141/03 (candidosis); assay: Robotic MIC assay, Candida strains (Example 2); type: cell-based; conditions: Pichia kudriavzevii, 48 h, Mueller-Hinton broth, read-out: Minimum Inhibitory Concentration (MIC)
Experimental: as §1, §2, §3, §4, §5

[5] = tested on: C. tropicalis T2.2 (oral); assay: Robotic MIC assay, Candida strains (Example 2); type: cell-based; conditions: Candida tropicalis, 48 h, Mueller-Hinton broth, read-out: Minimum Inhibitory Concentration (MIC)
Experimental: as §1, §2, §3, §4, §5

[6] = tested on: C. tropicalis 12 (vaginal); assay: Robotic MIC assay, Candida strains (Example 2); type: cell-based; conditions: Candida tropicalis, 48 h, Mueller-Hinton broth, read-out: Minimum Inhibitory Concentration (MIC)
Experimental: as §1, §2, §3, §4, §5

[7] = tested on: C. tropicalis 75 (vaginal); assay: Robotic MIC assay, Candida strains (Example 2); type: cell-based; conditions: Candida tropicalis, 48 h, Mueller-Hinton broth, read-out: Minimum Inhibitory Concentration (MIC)
Experimental: as §1, §2, §3, §4, §5

[8] = tested on: C. tropicalis 519468 (urinary); assay: Robotic MIC assay, Candida strains (Example 2); type: cell-based; conditions: Candida tropicalis, 48 h, Mueller-Hinton broth, read-out: Minimum Inhibitory Concentration (MIC)
Experimental: as §1, §2, §3, §4, §5

[9] = tested on: C. tropicalis 544123 (urinary); assay: Robotic MIC assay, Candida strains (Example 2); type: cell-based; conditions: Candida tropicalis, 48 h, Mueller-Hinton broth, read-out: Minimum Inhibitory Concentration (MIC)
Experimental: as §1, §2, §3, §4, §5

[10] = CCUG23451, 72 h, RPMI 2% GLU, 0% OligoG, 72 hours
[11] = CCUG23451, 72 h, RPMI 2% GLU, 2% OligoG, 72 hours
[12] = CCUG23451, 72 h, RPMI 2% GLU, 6% OligoG, 72 hours
[13] = CCUG23451, 72 h, Sabouraud, 0% OligoG, 72 hours
[14] = CCUG23451, 72 h, Sabouraud, 2% OligoG, 72 hours
[15] = CCUG23451, 72 h, Sabouraud, 6% OligoG, 72 hours
[16] = CCUG23451, 72 h, YM, 0% OligoG, 72 hours
[17] = CCUG23451, 72 h, YM, 2% OligoG, 72 hours
[18] = CCUG23451, 96 h, MH, 0% OligoG, 96 hours
[19] = CCUG23451, 96 h, MH, 2% OligoG, 96 hours
[20] = CCUG23451, 96 h, RPMI 2% GLU, 0% OligoG, 96 hours
[21] = CCUG23451, 96 h, RPMI 2% GLU, 2% OligoG, 96 hours
[22] = CCUG23451, 96 h, RPMI 2% GLU, 6% OligoG, 96 hours
[23] = CCUG23451, 96 h, Sabouraud, 0% OligoG, 96 hours
[24] = CCUG23451, 96 h, Sabouraud, 2% OligoG, 96 hours
[25] = CCUG23451, 96 h, Sabouraud, 6% OligoG, 96 hours
[26] = CCUG23451, 96 h, YM, 0% OligoG, 96 hours
[27] = CCUG23451, 96 h, YM, 2% OligoG, 96 hours

## Clc1ccc(COC(Cn2ccnc2)c2ccc(Cl)cc2Cl)c(Cl)c1 (stereo not drawn) [Miconazole, miconazole]
[1]; [10]
  MIC: 4 µg/mL (≈ 9.61 µM)
[1]; [11]
  MIC: 2 µg/mL (≈ 4.81 µM)
[1]; [12]
  MIC: 0.5 µg/mL (≈ 1.2 µM)
[1]; [13]
  MIC: < 0.0156 µg/mL
[1]; [14]
  MIC: 0.0625 µg/mL (≈ 0.15 µM)
[1]; [15]
  MIC: 0.00781 µg/mL (≈ 0.0188 µM)
[1]; [16]
  MIC: 0.5 µg/mL (≈ 1.2 µM)
[1]; [17]
  MIC: 0.5 µg/mL (≈ 1.2 µM)
[1]; [18]
  MIC: 1 µg/mL (≈ 2.4 µM)
[1]; [19]
  MIC: 0.125 µg/mL (≈ 0.3 µM)
[1]; [20]
  MIC: 4 µg/mL (≈ 9.61 µM)
[1]; [21]
  MIC: 2 µg/mL (≈ 4.81 µM)
[1]; [22]
  MIC: 1 µg/mL (≈ 2.4 µM)
[1]; [23]
  MIC: 0.0625 µg/mL (≈ 0.15 µM)
[1]; [24]
  MIC: 0.25 µg/mL (≈ 0.601 µM)
[1]; [25]
  MIC: 0.5 µg/mL (≈ 1.2 µM)
[1]; [26]
  MIC: 0.5 µg/mL (≈ 1.2 µM)
[1]; [27]
  MIC: 1 µg/mL (≈ 2.4 µM)
[1]; MH, Sabouraud, YM
  effect on MIC when OligoG is added to the medium: reduction in MIC in RPMI with glucose and in MH medium

## CN(C/C=C/C#CC(C)(C)C)Cc1cccc2ccccc12 [Terbinafine, terbinafine]
[2]; 0% OligoG
  MIC: 2 µg/mL (≈ 6.86 µM)
[2]; 2% OligoG
  MIC: 1 µg/mL (≈ 3.43 µM)
[2]; 6% OligoG
  MIC: 2 µg/mL (≈ 6.86 µM)
[2]; 10% OligoG
  MIC: 1 µg/mL (≈ 3.43 µM)
C. tropicalis AG1 (oral); 0% OligoG
  MIC: > 32 µg/mL
C. tropicalis AG1 (oral); 2% OligoG
  MIC: 32 µg/mL (≈ 110 µM)
C. tropicalis AG1 (oral); 6% OligoG
  MIC: > 32 µg/mL
C. tropicalis AG1 (oral); 10% OligoG
  MIC: > 32 µg/mL
[3]; 0% OligoG
  MIC: > 32 µg/mL
[3]; 2% OligoG
  MIC: > 32 µg/mL
[3]; 6% OligoG
  MIC: > 32 µg/mL
[3]; 10% OligoG
  MIC: > 32 µg/mL
[4]; 0% OligoG
  MIC: > 32 µg/mL
[4]; 2% OligoG
  MIC: > 32 µg/mL
[4]; 6% OligoG
  MIC: > 32 µg/mL
[4]; 10% OligoG
  MIC: > 32 µg/mL
[5]; 0% OligoG
  MIC: > 32 µg/mL
[5]; 2% OligoG
  MIC: > 32 µg/mL
[5]; 6% OligoG
  MIC: > 32 µg/mL
[5]; 10% OligoG
  MIC: 32 µg/mL (≈ 110 µM)
[6]; 0% OligoG
  MIC: > 32 µg/mL
[6]; 2% OligoG
  MIC: 16 µg/mL (≈ 54.9 µM)
[6]; 6% OligoG
  MIC: > 32 µg/mL
[6]; 10% OligoG
  MIC: 32 µg/mL (≈ 110 µM)
[7]; 0% OligoG
  MIC: > 32 µg/mL
[7]; 2% OligoG
  MIC: > 32 µg/mL
[7]; 6% OligoG
  MIC: > 32 µg/mL
[7]; 10% OligoG
  MIC: > 32 µg/mL
[8]; 0% OligoG
  MIC: > 32 µg/mL
[8]; 2% OligoG
  MIC: > 32 µg/mL
[8]; 6% OligoG
  MIC: > 32 µg/mL
[8]; 10% OligoG
  MIC: > 32 µg/mL
[9]; 0% OligoG
  MIC: > 32 µg/mL
[9]; 2% OligoG
  MIC: > 32 µg/mL
[9]; 6% OligoG
  MIC: > 32 µg/mL
[9]; 10% OligoG
  MIC: > 32 µg/mL

## C[C@@H]1[C@H](O)[C@@H](C)/C=C/C=C/C=C/C=C/C=C/C=C/C=C/[C@H](O[C@@H]2O[C@H](C)[C@@H](O)[C@H](N)[C@@H]2O)C[C@@H]2O[C@](O)(C[C@@H](O)C[C@@H](O)[C@H](O)CC[C@@H](O)C[C@@H](O)CC(=O)O[C@H]1C)C[C@H](O)[C@H]2C(=O)O [Amphotericin B, amphotericin B]
[1]; [10]
  MIC: > 1.5 µg/mL
[1]; [11]
  MIC: 1.5 µg/mL (≈ 1.62 µM)
[1]; [12]
  MIC: 0.75 µg/mL (≈ 0.812 µM)
[1]; [13]
  MIC: 0.188 µg/mL (≈ 0.203 µM)
[1]; [14]
  MIC: 0.0938 µg/mL (≈ 0.101 µM)
[1]; [15]
  MIC: 0.0117 µg/mL (≈ 0.0127 µM)
[1]; [16]
  MIC: > 1.5 µg/mL
[1]; [17]
  MIC: 1.5 µg/mL (≈ 1.62 µM)
[1]; [18]
  MIC: 1.5 µg/mL (≈ 1.62 µM)
[1]; [19]
  MIC: 0.188 µg/mL (≈ 0.203 µM)
[1]; [20]
  MIC: > 1.5 µg/mL
[1]; [21]
  MIC: > 1.5 µg/mL
[1]; [22]
  MIC: 1.5 µg/mL (≈ 1.62 µM)
[1]; CCUG23451, 96 h, RPMI 2% GLU, 10% OligoG, 96 hours
  MIC: 0.75 µg/mL (≈ 0.812 µM)
[1]; [23]
  MIC: 0.375 µg/mL (≈ 0.406 µM)
[1]; [24]
  MIC: 0.0938 µg/mL (≈ 0.101 µM)
[1]; [25]
  MIC: 0.0234 µg/mL (≈ 0.0253 µM)
[1]; [26]
  MIC: > 1.5 µg/mL
[1]; [27]
  MIC: 1.5 µg/mL (≈ 1.62 µM)
[1]; MH, Sabouraud, YM
  effect on MIC when OligoG is added to the medium: reduction in MIC in all media tested
